Experimental findings from patent publication US8664399B2, “Substituted heterocyclic compounds as ion channel modulators” (Gilead Sciences, Inc., priority 2008, dated 2014) are described below.

T1 sequence (Q14524 whole entry): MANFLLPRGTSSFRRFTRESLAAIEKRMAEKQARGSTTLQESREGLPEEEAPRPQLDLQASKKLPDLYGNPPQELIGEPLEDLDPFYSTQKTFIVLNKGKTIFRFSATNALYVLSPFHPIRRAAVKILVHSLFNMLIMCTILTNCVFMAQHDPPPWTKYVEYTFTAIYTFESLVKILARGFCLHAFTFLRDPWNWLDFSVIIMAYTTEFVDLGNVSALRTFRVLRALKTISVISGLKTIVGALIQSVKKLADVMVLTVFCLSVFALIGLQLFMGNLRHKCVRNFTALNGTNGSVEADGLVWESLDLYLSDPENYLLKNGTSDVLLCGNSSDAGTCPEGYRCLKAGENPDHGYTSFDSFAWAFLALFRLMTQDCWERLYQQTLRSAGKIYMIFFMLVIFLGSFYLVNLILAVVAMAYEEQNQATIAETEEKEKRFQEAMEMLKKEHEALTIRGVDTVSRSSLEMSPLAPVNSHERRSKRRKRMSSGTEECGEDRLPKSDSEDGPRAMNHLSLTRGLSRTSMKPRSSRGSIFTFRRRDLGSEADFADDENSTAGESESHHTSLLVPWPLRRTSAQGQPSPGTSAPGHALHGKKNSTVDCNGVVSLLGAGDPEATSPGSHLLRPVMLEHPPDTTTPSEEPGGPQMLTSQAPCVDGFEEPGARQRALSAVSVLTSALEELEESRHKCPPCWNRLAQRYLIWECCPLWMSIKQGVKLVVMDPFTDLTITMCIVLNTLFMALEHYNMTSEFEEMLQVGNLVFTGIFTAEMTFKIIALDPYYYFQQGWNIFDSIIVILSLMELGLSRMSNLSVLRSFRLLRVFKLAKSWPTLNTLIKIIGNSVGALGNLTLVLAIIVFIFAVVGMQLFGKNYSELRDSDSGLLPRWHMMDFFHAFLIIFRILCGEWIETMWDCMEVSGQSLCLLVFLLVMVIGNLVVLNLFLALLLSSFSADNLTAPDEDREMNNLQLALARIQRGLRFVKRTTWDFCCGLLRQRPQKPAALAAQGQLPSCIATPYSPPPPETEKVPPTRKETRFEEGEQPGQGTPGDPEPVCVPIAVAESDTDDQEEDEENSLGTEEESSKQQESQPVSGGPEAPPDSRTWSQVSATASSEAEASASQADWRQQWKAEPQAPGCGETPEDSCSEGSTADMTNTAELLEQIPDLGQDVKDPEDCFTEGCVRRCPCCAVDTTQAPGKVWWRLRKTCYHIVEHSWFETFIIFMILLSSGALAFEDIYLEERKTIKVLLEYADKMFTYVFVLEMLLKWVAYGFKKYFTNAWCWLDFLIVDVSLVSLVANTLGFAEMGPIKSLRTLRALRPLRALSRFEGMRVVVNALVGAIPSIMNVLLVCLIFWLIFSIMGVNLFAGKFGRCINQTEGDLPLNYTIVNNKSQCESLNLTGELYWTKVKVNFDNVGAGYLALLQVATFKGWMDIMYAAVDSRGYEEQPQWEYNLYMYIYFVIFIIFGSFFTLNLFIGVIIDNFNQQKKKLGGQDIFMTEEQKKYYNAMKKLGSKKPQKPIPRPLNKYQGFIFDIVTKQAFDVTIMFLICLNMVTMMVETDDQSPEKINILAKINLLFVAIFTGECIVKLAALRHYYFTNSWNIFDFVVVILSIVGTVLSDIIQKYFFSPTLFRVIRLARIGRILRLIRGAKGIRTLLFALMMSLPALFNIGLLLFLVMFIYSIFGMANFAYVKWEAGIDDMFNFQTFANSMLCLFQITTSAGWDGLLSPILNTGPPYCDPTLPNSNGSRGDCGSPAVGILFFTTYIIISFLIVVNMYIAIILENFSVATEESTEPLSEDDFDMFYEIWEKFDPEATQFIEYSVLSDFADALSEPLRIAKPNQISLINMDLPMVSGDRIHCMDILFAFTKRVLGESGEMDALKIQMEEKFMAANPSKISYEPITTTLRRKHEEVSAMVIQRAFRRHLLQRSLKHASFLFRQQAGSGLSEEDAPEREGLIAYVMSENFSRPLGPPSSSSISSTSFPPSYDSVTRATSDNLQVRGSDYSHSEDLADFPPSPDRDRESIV
T2 sequence (Q12809 whole entry): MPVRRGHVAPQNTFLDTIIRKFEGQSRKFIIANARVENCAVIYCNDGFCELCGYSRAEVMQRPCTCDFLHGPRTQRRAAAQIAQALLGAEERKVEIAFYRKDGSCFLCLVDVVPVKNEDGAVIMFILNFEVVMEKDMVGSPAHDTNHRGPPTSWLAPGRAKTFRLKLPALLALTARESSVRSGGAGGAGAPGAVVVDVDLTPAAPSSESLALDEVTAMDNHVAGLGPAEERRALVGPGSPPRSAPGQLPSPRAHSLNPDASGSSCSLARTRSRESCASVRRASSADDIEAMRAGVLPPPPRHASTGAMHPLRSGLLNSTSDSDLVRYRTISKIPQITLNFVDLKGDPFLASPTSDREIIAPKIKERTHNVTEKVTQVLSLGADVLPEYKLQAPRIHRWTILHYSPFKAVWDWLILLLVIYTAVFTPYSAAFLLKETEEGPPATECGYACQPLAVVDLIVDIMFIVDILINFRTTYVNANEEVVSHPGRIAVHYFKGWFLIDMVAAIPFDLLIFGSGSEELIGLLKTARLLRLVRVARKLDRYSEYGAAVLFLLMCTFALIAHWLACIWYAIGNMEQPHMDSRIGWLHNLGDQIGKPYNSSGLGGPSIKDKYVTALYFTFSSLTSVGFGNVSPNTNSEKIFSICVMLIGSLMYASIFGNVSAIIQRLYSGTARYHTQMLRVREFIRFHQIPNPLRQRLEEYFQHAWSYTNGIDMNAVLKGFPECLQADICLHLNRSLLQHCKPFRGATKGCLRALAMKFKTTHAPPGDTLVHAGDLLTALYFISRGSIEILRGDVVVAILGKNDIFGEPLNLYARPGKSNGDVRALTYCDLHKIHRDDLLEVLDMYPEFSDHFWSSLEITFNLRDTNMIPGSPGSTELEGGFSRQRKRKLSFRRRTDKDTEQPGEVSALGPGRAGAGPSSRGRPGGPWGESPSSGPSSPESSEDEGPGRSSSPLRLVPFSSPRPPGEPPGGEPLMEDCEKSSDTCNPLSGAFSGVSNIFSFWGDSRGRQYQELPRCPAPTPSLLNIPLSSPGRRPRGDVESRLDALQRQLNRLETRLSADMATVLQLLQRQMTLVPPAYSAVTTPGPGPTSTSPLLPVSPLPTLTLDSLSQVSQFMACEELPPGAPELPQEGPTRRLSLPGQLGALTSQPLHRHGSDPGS

The first series has as its target T1, human cardiac sodium channel, hNav1.5 (Homo sapiens, UniProt Q14524).
T1 construct: host or cells: HEK293
Briefly: Late INa screening assay (automated whole cell patch clamp, PatchXpress; late current generated with 10 μM Tefluthrin). The conditions noted are these: 1 μM test compound; HEK293 cells expressing hNav1.5. Format: cell-based. As to the method: The late sodium current (Late INa) and peak sodium current (Peak INa) assays were performed on an automated electrophysiology platform, PatchXpress 7000A (MDS Analytical Technologies, Sunnyvale, Calif.), which uses the whole cell patch clamp technique to measure currents through the cell membrane of up to 16 cells at a time. The assay uses an HEK293 (human embryonic kidney) cell line heterologously expressing the wild-type human cardiac sodium channel, hNav1.5, purchased from Millipore (Billerica, Mass.). No beta subunits were coexpressed with the Na channel alpha subunit. Cells were maintained with standard tissue culture procedures and stable channel expression was maintained with 400 μg/ml Geneticin in the culture medium. Cells isolated for use on PatchXpress were incubated for 5 minutes in Versene 1X and then for 2 minutes in 0.0125% Trypsin-EDTA (both at 37° C.) to ensure that 80-90% of the cells are single and not part of a cell cluster. Experiments were carried out at 24-27° C.
For both the Late INa and Peak INa assays, series resistance compensation was set to 50% and whole-cell compensation is performed automatically. Currents were low-pass filtered at 10 kHz and digitized at 31.25 kHz. Currents through open sodium channels were automatically recorded and stored in the DataXpress2 database (MDS Analytical Technologies, Sunnyvale, Calif.). Analysis is performed using DataXpress2 analysis software and data are compiled in Excel.
Compound stocks were routinely made in glass vials to 10 mM in dimethyl sulfoxide (DMSO). In some cases, when compounds were not soluble in DMSO, they were made in 100% ethanol. Stocks were sonicated as necessary. The extracellular solution for screening Late INa was composed of: 140 mM NaCl, 4 mM KCl, 1.8 mM CaCl2, 0.75 mM MgCl2, and 5 mM HEPES with pH adjusted to 7.4 using NaOH. The extracellular solution for screening Peak INa was composed of: 20 mM NaCl, 120 mM N-methyl-D glucamine, 4 mM KCl, 1.8 mM CaCl2, 0.75 mM MgCl2, and 5 mM HEPES with pH adjusted to 7.4 using HCl. The intracellular solution used to perfuse the inside of the cells for both the Late INa and Peak INa assays contained: 120 mM CsF, 20 mM CsCl, 5 mM EGTA, 5 mM HEPES and pH adjusted to 7.4 with CsOH. […] The 0Na extracellular solution used at the end of each experiment for the Late INa and Peak INa assays to measure baseline current contained: 140 mM N-methyl-D-glucamine; 4 mM KCl; 1.8 mM CaCl2; 0.75 mM MgCl2; 5 mM HEPES and pH was adjusted to 7.4 with HCl.
For the Late INa assay, sodium channels were activated every 10 seconds (0.1 Hz) by depolarizing the cell membrane to −20 mV for 250 milliseconds (ms) from a holding potential of −120 mV. In response to a −20 mV voltage step, typical Nav1.5 sodium currents activate rapidly to a peak negative current and then inactivate nearly completely within 3-4 ms.
All compounds were tested to determine their activity in blocking the late sodium current. Late INa current was generated by adding 10 μM Tefluthrin (pyrethroid) to the extracellular solution while recording Na currents.
Consider `Cc1nc2ccccc2c(C)c1C(=O)OCc1ccccc1Br` [PT-028, 2-bromobenzyl 2,4-dimethylquinoline-3-carboxylate], for which the “Late Ina % blk (1 μM test cmpd)” value is on record as 39.2%.

Still in this series, the particulars now being: 10 μM test compound; HEK293 cells expressing hNav1.5; read-out: Late Ina % blk (10 μM test cmpd).
Take `Cc1nc2ccccc2c(-c2ccccc2)c1C(=O)OCc1ccccc1` [PT-001, benzyl 2-methyl-4-phenylquinoline-3-carboxylate]: the inhibition at 10 µM was 78.3%.
In the case of `Cc1nc2ccc(Cl)cc2c(-c2ccccc2)c1C(=O)OC(C)(C)C` [PT-002, Tert-butyl 6-chloro-2-methyl-4-phenylquinoline-3-carboxylate], the inhibition at 10 µM came to 61.1%.
For the molecule `Cc1nc2ccc(Cl)cc2c(-c2ccccc2)c1C(=O)NCc1ccc(F)cc1` [PT-003, 6-chloro-N-(4-fluorobenzyl)-2-methyl-4-phenylquinoline-3-carboxamide], the inhibition at 10 µM worked out at 26.3%.
Turning to `N#Cc1c(N)nc2ccc(Cl)cc2c1-c1ccccc1` [PT-004, 2-amino-6-chloro-4-phenylquinoline-3-carbonitrile], the inhibition at 10 µM came out at 15.2%.
With `CCOC(=O)c1c(CCl)nc2ccc(Cl)cc2c1-c1ccccc1` [PT-006, ethyl 6-chloro-2-(chloromethyl)-4-phenylquinoline-3-carboxylate], the inhibition at 10 µM turned out to be 48.8%.
As for `CCOC(=O)c1c(CN2C(=O)c3ccccc3C2=O)nc2ccc(Cl)cc2c1-c1ccccc1` [PT-007, ethyl 6-chloro-2-[(1,3-dioxo-1,3-dihydro-2H-isoindol-2-yl)methyl]-4-phenylquinoline-3-carboxylate], the inhibition at 10 µM came out at 24%.
Turning to `CCOC(=O)c1c(Cn2ccnc2)nc2ccc(Cl)cc2c1-c1ccccc1` [PT-008, ethyl 6-chloro-2-(1H-imidazol-1-ylmethyl)-4-phenylquinoline-3-carboxylate], the inhibition at 10 µM was determined as 41.1%.
Turning to `CCOC(=O)c1c(COc2ccc(Cl)cc2OC)nc2ccc(Cl)cc2c1-c1ccccc1` [PT-011, ethyl 6-chloro-2-[(4-chloro-2-methoxyphenoxy)methyl]-4-phenylquinoline-3-carboxylate], the inhibition at 10 µM worked out at 18.1%.
For `Cc1nc2ccc(Cl)cc2c(-c2ccccc2)c1C(=O)N1CCCCC1` [PT-013, (6-chloro-2-methyl-4-phenylquinolin-3-yl)(piperidin-1-yl)methanone], the inhibition at 10 µM stood at 30.2%.
In the case of `Cc1nc2ccc(Cl)cc2c(-c2ccccc2)c1C(=O)O[C@@H](C)c1ccccc1` [PT-014, (1S)-1-phenylethyl 6-chloro-2-methyl-4-phenylquinoline-3-carboxylate], the inhibition at 10 µM was 36.1%.
As to `Cc1nc2ccc(Cl)cc2c(-c2ccccc2)c1C(=O)O[C@H](C)c1ccccc1` [PT-015, (1R)-1-phenylethyl 6-chloro-2-methyl-4-phenylquinoline-3-carboxylate], the inhibition at 10 µM came to 37%.
In the case of `Cc1nc2ccc(Cl)cc2c(-c2ccccc2)c1C(=O)OCc1ccc(Cn2cccn2)cc1` [PT-018, 4-(1H-pyrazol-1-ylmethyl)benzyl 6-chloro-2-methyl-4-phenylquinoline-3-carboxylate], the inhibition at 10 µM was 54.5%.
Consider `Cc1nc2ccc(Cl)cc2c(-c2ccccc2Cl)c1C(=O)OC(C)(C)C` [PT-020, Tert-butyl 6-chloro-4-(2-chlorophenyl)-2-methylquinoline-3-carboxylate], for which the inhibition at 10 µM stood at 32.9%.
`CCOC(=O)c1c(C)nc2ccc(Cl)cc2c1-c1ccccc1Cl` [PT-021, ethyl 6-chloro-4-(2-chlorophenyl)-2-methylquinoline-3-carboxylate]: the inhibition at 10 µM was 70.2%.
Regarding `Cc1nc2ccc(Cl)cc2c(-c2ccccc2F)c1C(=O)OC(C)(C)C` [PT-022, Tert-butyl 6-chloro-4-(2-fluorophenyl)-2-methylquinoline-3-carboxylate], the inhibition at 10 µM came to 46.9%.
Consider `Cc1nc2ccc(Cl)cc2c(-c2ccccc2)c1C(C)O` (stereo not shown) [PT-023, 1-(6-chloro-2-methyl-4-phenylquinolin-3-yl)ethanol], for which the inhibition at 10 µM turned out to be 29.8%.
As to `CCOC(=O)c1c(CN(C)C)nc2ccc(Cl)cc2c1-c1ccccc1` [PT-024, ethyl 6-chloro-2-[(dimethylamino)methyl]-4-phenylquinoline-3-carboxylate], the inhibition at 10 µM was found to be 57.8%.
The same measure, in the same setting: the figure for `COC(=O)c1c(C)nc2ccccc2c1C` [PT-025, methyl 2,4-dimethylquinoline-3-carboxylate] is 26.6%; for `CCOCc1nc2ccccc2c(C)c1C(=O)OCC` [PT-026, ethyl 2-(ethoxymethyl)-4-methylquinoline-3-carboxylate] it is 23.4%; for `Cc1nc2ccc(Cl)cc2c(-c2ccccc2Cl)c1C(=O)OCc1ccccc1Br` [PT-027, 2-bromobenzyl 6-chloro-4-(2-chlorophenyl)-2-methylquinoline-3-carboxylate] it is 45.3%.
As to `Cc1nc2ccccc2c(C)c1C(=O)OCc1ccccc1Br` [PT-028, 2-bromobenzyl 2,4-dimethylquinoline-3-carboxylate], the inhibition at 10 µM stood at 82.4%.
As to `CCOC(=O)c1c(C)nc2ccc(Cl)cc2c1-c1ccccc1` [PT-029, ethyl 6-chloro-2-methyl-4-phenylquinoline-3-carboxylate], the inhibition at 10 µM was 70.2%.
On to `CCOC(=O)c1c(C)nc2ccc(Cl)cc2c1-c1ccccc1F` [PT-030, ethyl 6-chloro-4-(2-fluorophenyl)-2-methylquinoline-3-carboxylate], for which the inhibition at 10 µM was found to be 55.4%.
In the case of `Cc1nc2ccccc2c(C)c1-c1nnc(C(C)(C)c2ccc(Cl)cc2)o1` [PT-031, 3-{5-[2-(4-chlorophenyl)propan-2-yl]-1,3,4-oxadiazol-2-yl}-2,4-dimethylquinoline], the inhibition at 10 µM worked out at 64.4%.
Same read-out and setting: the figure for `Cc1nc2ccc(Cl)cc2c(C)c1C(=O)OCc1ccccc1Br` [PT-032, 2-bromobenzyl 6-chloro-2,4-dimethylquinoline-3-carboxylate] is 82.4%.

Another series addresses T2, hERG potassium channel (Homo sapiens, UniProt Q12809).
T2 construct: expressed in transfected cells; host or cells: CHO (Chinese Hamster Ovary)
The series can be described thus: hERG screening assay (PatchXpress automated patch clamp, CHO cell line). The series is classed as cell-based. The conditions noted are these: 1 μm test compound; CHO cells. As for the experimental part: Compounds were screened to test their activity in blocking the hERG potassium channel. The hERG channel is heterologously expressed in a CHO (Chinese Hamster Ovary) cell line. Cells were maintained with standard tissue culture procedures and stable channel expression is maintained with 500 μg/ml G418 in the culture medium. Cells were harvested for testing on the PatchXpress automated patch clamp with Accumax (Innovative Cell Technologies, San Diego, Calif.) to isolate single cells.
The following solutions were used for electrophysiological recordings. The external solution contains: 2 mM CaCl2; 2 mM MgCl2; 4 mM KCl; 150 mM NaCl; 10 mM Glucose; 10 mM HEPES (pH 7.4 with 1M NaOH, osmolarity). The internal solution contained: 140 mM KCl, 10 mM MgCl2, 6 mM EGTA, 5 mM HEPES, 5 mM ATP (pH adjusted to 7.25 with KOH).
hERG channels are activated when the voltage is stepped to +20 mV from the −80 mV holding potential. During a 5 second step at +20 mV, the channels activate and then largely inactivate, so the currents are relatively small. Upon returning to −50 mV from +20 mV, hERG currents transiently become much larger as inactivation is rapidly removed and then the channel closes. The first step to −50 mV for 300 ms is used as a baseline for measuring the peak amplitude during the step to −50 mV after channel activation. The peak current at −50 mV was measured both under control conditions and after addition of compound.
All compounds were prepared as 10 mM DMSO stocks in glass vials. Stock solutions were mixed by vigorous vortexing and sonication for about 2 minutes at room temperature. For testing, compounds were diluted in glass vials using an intermediate dilution step in pure DMSO and then further diluted to working concentrations in external solution. Dilutions were prepared no longer than 20 minutes before use.
After achieving the whole-cell configuration, cells were monitored for 90 seconds to assess stability and washed with external solution for 66 seconds. The voltage protocol described above was then applied to the cells every 12 seconds and throughout the whole procedure. Only cells with stable recording parameters and meeting specified health criteria were allowed to enter the compound addition procedure.
External solution containing 0.1% DMSO (vehicle) was applied to the cells first to establish the control peak current amplitude. After allowing the current to stabilize for 3 to 5 minutes, 1 μM and then 10 μM test compounds was applied. Each compound concentration was added 4 times and cells were kept in test solution until the effect of the compound reaches steady state or for a maximum of 12 minutes. After addition of test compound, a positive control (1 μM Cisapride) was added and must block >95% of the current for the experiment to be considered valid. Washout in the external solution compartment was performed until the recovery of the current reaches steady state. Data were analyzed using DataXpress, Clampfit (Molecular Devices, Inc., Sunnyvale) and Origin 7 (Originlab Corp.)
On the technique in general: The hERG channel carries a current that helps repolarise heart muscle cells.
In the case of `CCOC(=O)c1c(Cn2ccnc2)nc2ccc(Cl)cc2c1-c1ccccc1` [PT-008, ethyl 6-chloro-2-(1H-imidazol-1-ylmethyl)-4-phenylquinoline-3-carboxylate], the “hERG Patch Clamp hERG % blk (1 μm test cmpd)” value stood at 43.0%.

The series is the same for the next values; noted with them: 10 μm test compound; CHO cells.
On to `CCOC(=O)c1c(Cn2ccnc2)nc2ccc(Cl)cc2c1-c1ccccc1` [PT-008, ethyl 6-chloro-2-(1H-imidazol-1-ylmethyl)-4-phenylquinoline-3-carboxylate], for which the “hERG Patch Clamp hERG % blk (10 μm test cmpd)” value is recorded as 94.5%.
